In the supplement of paper PMC11451515:

Assays:
Conditions in all cases: 48 h
[1] = tested on: NOMO1; experiment: AUC of viability dose-response curve (% viability x log10 dose units); higher = less sensitive
In short: (§1)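 Over 48 h at 37°C, leukemia cells in 1536-well plates (500 or 1000 cells/well), adapted to each medium, received library compounds in DMSO at 11 threefold doses from 47 μM to 0.79 nM. CellTiter-Glo One luminescence, normalised per plate to DMSO and cell-free wells, was fitted by a four-parameter log-logistic function of log10 dose. The area under the curve was then integrated by trapezoidal rule, after scaling curves above full viability and removing those that failed quality control.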

[2] = tested on: P12-Ichikawa; experiment: as above
In short: as §1

[3] = tested on: SEM cells; experiment: as above
In short: as §1

[4] = tested on: NOMO1; experiment: cell viability relative to DMSO control; higher = less cytotoxic
In short: (§2)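 Viability is a per-plate percentage relative to DMSO wells, with cell-free wells as background. CellTiter-Glo One luminescence was read after 48 h at 37°C on 1536-well plates (5 μl) of NOMO1 or SEM (500 cells/well) or P12-Ichikawa (1000 cells/well) leukemia cells. The cells had been adapted for at least four passages in each medium and pin-dosed with library compounds in DMSO from 47 μM to 0.79 nM in 11 threefold steps.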

[5] = tested on: P12-Ichikawa; experiment: as above
In short: as §2

[6] = tested on: SEM cells; experiment: as above
In short: as §2

OC1=CC2=C(C(=C1)O)C(=O)\C(=C(/O2)C3=CC(=C(O)C(=C3)O)O)O
AUC of viability dose-response curve
Conditions | [1] | [2] | [3]
HPLM + 10% dialyzed FBS | 451 | 454 | 462
RPMI 5 mM glucose + 10% FBS | 470 | 471 | 460
RPMI 5 mM glucose + 10% dialyzed FBS | 458 | 466 | 470

C/C1=C2/[N]3[Co+]456([OH])<-[N]7=C1[C@@H](CCC(N)=O)C(C)(C)/C7=C/C1=[N]->4C(=C(/C)C4=[N]->5[C@@](C)([C@H]3[C@H](CC(N)=O)[C@@]2(C)CCC(=O)NC[C@@H](C)OP(=O)([O-])O[C@H]2[C@@H](O)[C@@H](n3c[n]->6c5cc(C)c(C)cc53)O[C@@H]2CO)[C@@](C)(CC(N)=O)[C@@H]4CCC(N)=O)/[C@@](C)(CC(N)=O)[C@@H]1CCC(N)=O
cell viability [%]
Conditions | [4] | [5] | [6]
HPLM + 10% dialyzed FBS, 0.000781 µM | 94.9 | 103 | 93.9
HPLM + 10% dialyzed FBS, 0.00234 µM | 110 | 97.2 | 90.7
HPLM + 10% dialyzed FBS, 0.00702 µM | 102 | 95.9 | 94.6
HPLM + 10% dialyzed FBS, 0.0211 µM | 103 | 99.2 | 98.2
HPLM + 10% dialyzed FBS, 0.0632 µM | 113 | 99.9 | 98.3
HPLM + 10% dialyzed FBS, 0.19 µM | 105 | 97.8 | 94.2
HPLM + 10% dialyzed FBS, 0.569 µM | 100 | 92.8 | 94.6
HPLM + 10% dialyzed FBS, 1.71 µM | 77.2 | 93.2 | 92.8
HPLM + 10% dialyzed FBS, 5.12 µM | 87.9 | 76.8 | 94.5
HPLM + 10% dialyzed FBS, 15.4 µM | 80.4 | 77.7 | 73.8
HPLM + 10% dialyzed FBS, 46.1 µM | 70.6 | 71.3 | 60.1
RPMI 5 mM glucose + 10% FBS, 0.000781 µM | 95.1 | 97.5 | 112
RPMI 5 mM glucose + 10% FBS, 0.00234 µM | 95 | 88.7 | 116
RPMI 5 mM glucose + 10% FBS, 0.00702 µM | 87.9 | 97.9 | 104
RPMI 5 mM glucose + 10% FBS, 0.0211 µM | 95.4 | 98.1 | 82.5
RPMI 5 mM glucose + 10% FBS, 0.0632 µM | 90.5 | 95.7 | 113
RPMI 5 mM glucose + 10% FBS, 0.19 µM | 90.3 | 88.3 | 95.9
RPMI 5 mM glucose + 10% FBS, 0.569 µM | 97.3 | 98.8 | 99.3
RPMI 5 mM glucose + 10% FBS, 1.71 µM | 82.2 | 93.4 | 97.3
RPMI 5 mM glucose + 10% FBS, 5.12 µM | 81.4 | 85.8 | 77.1
RPMI 5 mM glucose + 10% FBS, 15.4 µM | 89 | 85.4 | 91.6
RPMI 5 mM glucose + 10% FBS, 46.1 µM | 75.5 | 69.8 | 79.9
RPMI 5 mM glucose + 10% dialyzed FBS, 0.000781 µM | 95.6 | 82.3 | 96.4
RPMI 5 mM glucose + 10% dialyzed FBS, 0.00234 µM | 95.8 | 85.2 | 96.6
RPMI 5 mM glucose + 10% dialyzed FBS, 0.00702 µM | 101 | 86.5 | 109
RPMI 5 mM glucose + 10% dialyzed FBS, 0.0211 µM | 94.6 | 77.3 | 100
RPMI 5 mM glucose + 10% dialyzed FBS, 0.0632 µM | 90.7 | 83 | 110
RPMI 5 mM glucose + 10% dialyzed FBS, 0.19 µM | 97.7 | 79.9 | 95.6
RPMI 5 mM glucose + 10% dialyzed FBS, 0.569 µM | 97.5 | 75.7 | 101
RPMI 5 mM glucose + 10% dialyzed FBS, 1.71 µM | 91.8 | 76.7 | 101
RPMI 5 mM glucose + 10% dialyzed FBS, 5.12 µM | 86.1 | 73.9 | 103
RPMI 5 mM glucose + 10% dialyzed FBS, 15.4 µM | 89.9 | 76.9 | 80.4
RPMI 5 mM glucose + 10% dialyzed FBS, 46.1 µM | 72.7 | 61 | 71

AUC of viability dose-response curve
Conditions | HPLM + 10% dialyzed FBS | RPMI 5 mM glucose + 10% FBS | RPMI 5 mM glucose + 10% dialyzed FBS
[1] | 434 | 426 | 443
[3] | 433 | 414 | 460
